Three compounds from the NIST ThermoML archive (doi:10.1016/j.jct.2006.03.013) can be followed below.

± gives the expanded uncertainty stated by the source.

For this series the following is noted: 182.33 K; Liquid; Closed cell (Static) method.
Consider `CC` [ethane], for which the “vapor or sublimation pressure” value is given as 88.97 ± 0.39 kPa. To `CCCC` [butane] belongs 0.419 ± 0.011 kPa; to `CCC` [propane], 6.02 ± 0.044 kPa.
